The results in this text go back to patent US7273848B2, “Apolipoprotein A-I agonists and their use to treat dyslipidemic disorders” (priority 1997, dated 2007).

No end group written: not given here.

The nature of data set [1]: Lipid binding by fluorescence spectroscopy. As to the method: The lipid binding properties of the peptides synthesized in Section 6, supra, were tested by fluorescence measurements with labeled peptides, in the present case Tryptophane (Trp or W) or Naphtylalanine (Nal). The fluorescence spectra were recorded on a Fluoromax from Spex (Jobin-Yvon) equipped with a Xenon lamp of 150 W, two monochromators (excitation and emission), a photomultiplier R-928 for detection sensitive in the red up to 850 nm and a thermoelectric magnetic stirred cell holder. Quartz Suprasil cuvettes were used for measurements in the micromolar concentration range. A device of variable slits (from 0.4 to 5 nm) allows modulation of the incident and emitted intensities according to the concentration of peptide used. The reported values are in general the average of between 2 to 4 spectra. The peptide concentration is determined by absorption spectrometry on a Philips PU 8800 using the absorption band of the Trp (ε280 nm=5,550 M^−1 cm^−1 in Tris buffer) or the Nal (ε224 nm =92,770 M^−1 cm^−1 in methanol)
Fluorescence spectra of the peptides were recorded between 290 nm and 450 nm in Tris-HCl buffer (20 mM, pH=7.5), in the presence and absence of lipidic vesicles. The small unilamellar vesicles were formed after rehydration in buffer of the lyophilized phospholipids, dispersion and tip sonification under a N2 stream. The lipids used were either Egg PC/Chol. (20:1) or POPC/Chol. (20:1). The spectra were recorded at a peptide concentration of 2 μM and at a temperature of 37° C. The fluorescence reference standard in the case of Trp was N-acetyltryptophanylamide (NATA).
Lipid binding studies were done through progressive lipidic vesicle addition to the peptide in solution at 2 μM (slits: 5 nm in excitation and 1.5 nm in emission). Dilution effects were taken into account for the fluorescence intensity determination. The lipid concentrations were varied from 10 to 600 μM and the molar ratio of lipid to peptide (Ri) was varied from 5 to 300. The wavelength of excitation was set at 280 nm for both Trp and Nal.
The data were directly recorded and treated by an IBM-PC linked to the spectrofluorimeter through the DM3000F software from Spex. The spectra were corrected by substraction of the solvent contribution and by application of a coefficient given by the constructor taking into account the variation of the photomultiplier response versus the wavelength.
The fluorescence spectra of the peptides were characterized by the wavelength at their maximum of fluorescence emission and by their quantum yield compared to NATA in the case of peptides labeled with a tryptophane. The process of binding to lipids was analyzed by calculating the shift of the wavelength at the maximum of fluorescence emission, (λmax), and the variation of the relative fluorescence intensity of emission versus the lipid concentration. The relative fluorescence intensity is defined as the following ratio: (I-I0)λmax/I0λmax. I and I0 are both measured at the (λmax) corresponding to the initial free state of the peptide, i.e., without lipids. I is the intensity at a defined lipid to peptide ratio and I0 is the same parameter measured in absence of lipids. The absence of these variations is relevant of the absence of interactions of the peptides with the lipids.

The nature of data set [2]: Superose 6 gel filtration chromatography of peptide-lipid complexes. The class given is physicochemical. As to conditions: peptide/DPPC complexes, 1 mg peptide and 3 mgs DPPC, colyophilized, in 0.9% NaCl. How it is done: An aliquot of the resulting reconstituted preparation can be characterized to confirm that the complexes in the preparation have the desired size distribution; e.g., the size distribution of HDL. Gel filtration chromatography can be used to this end. In the working examples described infra, a Pharmacia Superose 6 FPLC gel filtration chromatography system was used. The buffer used contains 150 mM NaCl in 50 mM phosphate buffer, pH 7.4. A typical sample volume is 20 to 200 microliters of complexes containing 5 mgs peptide/ml. The column flow rate is 0.5 mls/min. A series of proteins of known molecular weight and Stokes' diameter as well as human HDL are used as standards to calibrate the column. The proteins and lipoprotein complexes are monitored by absorbance or scattering of light of wavelength 254 or 280 nm.
Peptide-phospholipid complexes containing peptide 149 (SEQ ID NO:149) were prepared by colyophilization as described above. The preparation contained 1 mg peptide and 3 mgs DPPC by weight. […] The chromatography was monitored by absorbance or scattering of light of wavelength 280 nm. […] The vast majority of both phospholipid and UV absorbance were recovered together in a few fractions with peaks at approximately 15.8 mls. […]

Regarding PVLELFENLWERLLDALQKKLK [peptide 149], in data set [1] (EPC/Chol (20:1) SUVs), the “lipid to peptide molar ratio at which burying of the tryptophane residue is maximal” value is listed as “about 30”. Moreover, the “λmax (nm)” value in data set [1] (Ri 0 (buffer, no lipids), 2 μM) turned out to be 347 nm; in data set [1] (Ri 5), 334.5 nm; in data set [1] (Ri 10) it was 329 nm; in data set [1] (Ri 30) it was 325.5 nm; in data set [1] (Ri 60) it was 325 nm; in data set [1] (Ri 100), 325.5 nm. Besides, the “λmax (nm)” value in data set [1] (Ri 200) is 325 nm. Moreover, the I/Io was determined as 0 in data set [1] (Ri 0, 2 μM peptide, 37° C.); 19.7 in data set [1] (Ri 5); 31.4 in data set [1] (Ri 10); 49.4 in data set [1] (Ri 30); 64.3 in data set [1] (Ri 60); 77 in data set [1] (Ri 100). The sequence further yielded an I/Io in data set [1] (Ri 200) of 84. In data set [1] (bound to EPC/Chol (20:1) SUVs), the “wavelength for the tryptophane maximum fluorescence emission after binding” value is given as 325 nm. The “lipid binding (in words)” value in data set [1] (small unilamellar vesicles) is “binds very effectively”. Besides, the “Stokes' diameter” value in data set [2] was determined as 87 Angstroms.
